Measurements as given in patent US5710123A, “Peptide inhibitors of selectin binding” (Centocor, Inc., priority 1995, dated 1998).
Where a SMILES comes first, the peptide text is derived from it. Bridges are numbered along the chain shown (N, C = ends). Where no end group is shown, it is not given here.

molecular target: T1, P-selectin (Homo sapiens, UniProt P16109); experiment: Inhibition of binding of human neutrophils to P-selectin (neutrophil adhesion to purified immobilized P-selectin, myeloperoxidase readout); format: cell-based; details: P-selectin purified from human platelets, plated at 5 micrograms/mL, peptides tested 1.0 mM to 0.001 mM
T1 construct: from tissue; host or cells: outdated human platelet packs from a blood bank
T1 sequence (P16109 42-830): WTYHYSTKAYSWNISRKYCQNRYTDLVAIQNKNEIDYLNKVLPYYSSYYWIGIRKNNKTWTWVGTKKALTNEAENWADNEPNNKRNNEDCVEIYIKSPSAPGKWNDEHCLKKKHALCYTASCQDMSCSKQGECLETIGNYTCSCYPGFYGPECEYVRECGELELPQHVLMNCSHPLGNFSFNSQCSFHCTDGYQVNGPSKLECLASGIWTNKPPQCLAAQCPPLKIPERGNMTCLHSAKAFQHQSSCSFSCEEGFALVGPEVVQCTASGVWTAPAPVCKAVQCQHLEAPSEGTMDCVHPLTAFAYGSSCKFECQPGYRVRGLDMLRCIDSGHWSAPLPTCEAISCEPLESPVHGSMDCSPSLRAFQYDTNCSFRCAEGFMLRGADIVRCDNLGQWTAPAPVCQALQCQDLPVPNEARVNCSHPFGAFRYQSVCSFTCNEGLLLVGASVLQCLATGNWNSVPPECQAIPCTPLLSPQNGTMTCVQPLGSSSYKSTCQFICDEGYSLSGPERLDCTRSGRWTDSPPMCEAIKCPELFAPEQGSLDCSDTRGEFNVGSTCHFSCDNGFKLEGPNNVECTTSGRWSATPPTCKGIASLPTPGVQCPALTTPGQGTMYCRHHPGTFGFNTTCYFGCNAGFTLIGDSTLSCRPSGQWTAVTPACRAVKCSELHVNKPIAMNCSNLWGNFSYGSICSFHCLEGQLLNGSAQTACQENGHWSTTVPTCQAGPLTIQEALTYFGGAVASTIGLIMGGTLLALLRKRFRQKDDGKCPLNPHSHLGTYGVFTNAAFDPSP
Text: Peptides can be screened for their ability to inhibit adhesion to cells, for example, neutrophil adhesion to purified P-selectin immobilized on plastic wells, using the assay described by Geng, et al., Nature 343, 757-760 1990). Human neutrophils are isolated from heparinized […] blood by density gradient centrifugation on Mono-Poly resolving media, Flow Laboratories. Neutrophil suspensions are greater than 98% pure and greater than 95% viable by trypan blue exclusion. For adhesion assays, neutrophils are suspended at a concentration of 2×10^6 cells/mL in Hanks' balanced salt solution containing 1.26 mM Ca^2+ and 0.81 mM Mg^2+ (HBSS, Gibco) with […] human serum albumin (HBSS/HSA). Adhesion assays are conducted in triplicate in 96-well microtiter plates, Corning, incubated at 4° C. overnight with 50 microliters of various protein solutions. P-selectin is isolated from human platelet lysates by immunoaffinity chromatography on antibody S12-Sepharose™ and ion-exchange chromatography on a Mono-Q™ column (FLPC, Pharmacia Fine Chemicals), as follows. Outdated human platelet packs (100 units) obtained from a blood bank and stored at 4° C. are pooled, adjusted to 5 mM EDTA at pH 7.5, centrifuged at 4,000 rpm for 30 minutes in 1 liter bottles, then washed three times with 1 liter of 0.1M NaCl, 20 mM Tris pH 7.5 (TBS), 5 mM EDTA, 5 mM benzamidine. The pellets are then resuspended in a minimum amount of wash buffer and made 1 mM in DIFP, then frozen in 50 mL screwtop tubes at -80° C. The frozen platelets are thawed and resuspended in 50 mL TBS, 5 mM benzamidine, 5 mM EDTA pH 7.5, […]. The suspension is frozen and thawed two times in a dry ice-acetone bath using a 600 mL lyophilizing flask, then homogenized in a glass/teflon mortar and pestle and made 1 mM in DIFP. The NaCl concentration is adjusted to 0.5M with a stock solution of 4M NaCl. After stirring the suspension at 4° C., it is centrifuged in polycarbonate tubes at 33,000 rpm for 60 minutes at 4° C. The supernatant (0.5M NaCl wash) is removed and saved; this supernatant contains the soluble form of P-selectin. Care is taken not to remove the top part of the pellet with the supernatant. The pellets are then homogenized in extraction buffer (TBS, 5 mM benzamidine, 5 mM EDTA, pH 7.5, 100 μM leupeptin, 2% Triton X-100). After centrifugation at 19,500 rpm for 25 minutes at 4° C., the supernatant is removed. The extraction procedure is repeated with the pellet and the supernatant is combined with the first supernatant. The combined extracts, which contain the membrane form of P-selectin, are adjusted to 0.5M NaCl. The soluble fraction (0.5M NaCl wash) and the membrane extract (also adjusted to 0.5M NaCl) are absorbed with separate pools of the monoclonal antibody S12 (directed to P-selectin) previously coupled to Affigel (Biorad) at 5 mg/mL for 2 hours at 4° C. After letting the resins settle, the supernatants are removed. The S12 Affigel containing bound GMP-140 is then loaded into a column and washed overnight at 4° C. with 400 mL of 0.5M NaCl, 20 mM Tris pH 7.5, 0.01% Lubrol PX. Bound P-selectin is eluted from the S12 Affigel with 100 mL of 80% ethylene glycol, 1 mM MES pH 6.0, 0.01% Lubrol PX. Peak fractions with absorbance at 280 nm are pooled. Eluates are dialyzed against TBS with 0.05% Lubrol, then applied to a Mono Q column (FPLC from Pharmacia). The concentrated protein is step eluted with 2M NaCl, 20 mM Tris pH 7.5 (plus 0.05% Lubrol PX for the membrane fraction). Peak fractions are dialyzed into TBS pH 7.5 (plus 0.05% Lubrol PX for the membrane fraction). P-selectin is plated at 5 micrograms/mL and the control proteins: human serum albumin (Alb), platelet glycoprotein IIb/IIIa (IIb), von Willsbrand factor (vWF), fibrinogen (FIB), thrombomodulin (TM), gelatin (GEL) or human serum (HS), are added at 50 micrograms/mL. […]

Going from `CC(C)C[C@H](NC(=O)[C@H](C)NC(=O)[C@H](Cc1c[nH]cn1)NC(=O)[C@H](CCCCN)NC(=O)[C@H](CCCCN)NC(=O)[C@H](CCCCN)NC(=O)[C@H](CC(C)C)NC(=O)[C@@H](N)CS)C(=O)N[C@@H](CS)C(=O)N[C@@H](Cc1ccc(O)cc1)C(N)=O` [SEQ ID NO: 1, Cystinyl-leucyl-lysyl-lysyl-lysyl-histidyl-alanyl-leucyl-cystinyl-tyrosine- amide] (H-CLKKKHALCY-NH2) to `CC(C)C[C@H](NC(=O)[C@H](C)NC(=O)[C@H](CC(C)C)NC(=O)[C@H](CCCCN)NC(=O)[C@H](CCCCN)NC(=O)[C@H](CCCCN)NC(=O)[C@H](CO)NC(=O)[C@@H](N)CS)C(=O)N[C@@H](CS)C(=O)N[C@@H](Cc1ccc(O)cc1)C(N)=O` [SEQ ID NO: 2, Cystinyl-serinyl-lysyl-lysyl-lysyl-leucyl-alanyl-leucyl-cystinyl-tyrosine-amide] (H-CSKKKLALCY-NH2), the IC50 falls from 269 µM to 48 µM (5.6-fold).

Compared with `CC(C)C[C@H](NC(=O)[C@H](C)NC(=O)[C@H](C)NC(=O)[C@H](CCCCN)NC(=O)[C@H](CC(C)C)NC(=O)[C@H](CCCCN)NC(=O)[C@H](Cc1c[nH]cn1)NC(=O)[C@@H](N)CS)C(=O)N[C@@H](CS)C(=O)N[C@@H](Cc1ccc(O)cc1)C(N)=O` [SEQ ID NO: 3, Cystinyl-histidyl-lysyl-leucyl-lysyl-alanyl-alanyl-leucyl-cystinyl-tyrosine-amide] (H-CHKLKAALCY-NH2), `CC(C)C[C@@H]1NC(=O)[C@H](C)NC(=O)[C@H](Cc2c[nH]cn2)NC(=O)[C@H](CCCCN)NC(=O)[C@H](CCCCN)NC(=O)[C@H](CCCCN)NC(=O)[C@H](CC(C)C)NC(=O)[C@@H](N)CSSC[C@@H](C(=O)N[C@@H](Cc2ccc(O)cc2)C(N)=O)NC1=O` [SEQ ID NO: 4, Cyclo-(cystinyl-leucyl-lysyl-lysyl-lysyl-histidyl-alanyl-leucyl-cystinyl)-tyrosine-amide] (H-CLKKKHALCY-NH2; disulfide 1-9) is 2.2-fold higher in IC50: 282 µM for the first, 626 µM for the second. The first is the more potent here.

Going from `CC(C)C[C@@H]1NC(=O)[C@H](C)NC(=O)[C@H](CC(C)C)NC(=O)[C@H](CCCCN)NC(=O)[C@H](CCCCN)NC(=O)[C@H](CCCCN)NC(=O)[C@H](CO)NC(=O)[C@@H](N)CSSC[C@@H](C(=O)N[C@@H](Cc2ccc(O)cc2)C(N)=O)NC1=O` [SEQ ID NO: 5] (H-CSKKKLALCY-NH2; disulfide 1-9) to `CC(C)C[C@@H]1NC(=O)[C@H](C)NC(=O)[C@H](C)NC(=O)[C@H](CCCCN)NC(=O)[C@H](CC(C)C)NC(=O)[C@H](CCCCN)NC(=O)[C@H](Cc2c[nH]cn2)NC(=O)[C@@H](N)CSSC[C@@H](C(=O)N[C@@H](Cc2ccc(O)cc2)C(N)=O)NC1=O` [SEQ ID NO: 6, Cyclo-(cystinyl-histidyl-lysyl-leucyl-lysyl-alanyl-alanyl-leucyl-cystinyl)- tyrosine-amide] (H-CHKLKAALCY-NH2; disulfide 1-9), the IC50 falls from 78 µM to 2 µM (39-fold).

First: Ac-FKKKLALCY-NH2 [SEQ ID NO: 7, Ac-FKKKLALCY--NH2]
Second: Ac-HKKKLALCY-NH2 [SEQ ID NO: 9, Ac-HKKKLALCY--NH2]
The IC50 of the first is 6.7-fold higher: 74 µM for the first, 11 µM for the second. The second is the more potent here.

Going from “Ac-LKKKLALCY-NH2 [SEQ ID NO: 12, Ac-LKKKLALCY--NH2]” to “Ac-NKKKLALCY-NH2 [SEQ ID NO: 14, Ac-NKKKLALCY--NH2]”, the IC50 rises from 26 µM to 53 µM (2-fold). The first is the more potent here.

Compared with “Ac-SKAKLALCY-NH2 [SEQ ID NO: 19, Ac-SKAKLALCY--NH2]”, “Ac-SKKKAALCY-NH2 [SEQ ID NO: 23, Ac-SKKKAALCY--NH2]” is 3.2-fold higher in IC50: 60 µM for the first, 192 µM for the second.

Going from “Ac-SKKKLALCY-NH2 [SEQ ID NO: 49, Ac-SKKKLALCY--NH2]” to “Ac-SKKKLALIY-NH2 [SEQ ID NO: 34, Ac-SKKKLALIY--NH2]”, the IC50 rises from 9 µM to 128 µM (14-fold).

Going from “Ac-SKKKLALLY-NH2 [SEQ ID NO: 37, Ac-SKKKLALLY--NH2]” to “Ac-SKKKLALVY-NH2 [SEQ ID NO: 39, Ac-SKKKLALVY--NH2]”, the IC50 rises from 88 µM to 164 µM (1.9-fold). The first is the more potent here.

First: Ac-SKKKTALCY-NH2 [SEQ ID NO: 47, Ac-SKKKTALCY--NH2]
Second: Ac-SKLKLALCY-NH2 [SEQ ID NO: 51, Ac-SKLKLALCY--NH2]
The IC50 of the first is 6.8-fold higher: 82 µM for the first, 12 µM for the second. The second is the more potent here.

Compared with “Ac-SKRKLALCY-NH2 [SEQ ID NO: 53, Ac-SKRKLALCY--NH2]”, “Ac-SKRKRALCY-NH2 [SEQ ID NO: 55, Ac-SKRKRALCY--NH2]” is 2.2-fold higher in IC50: 12 µM for the first, 26 µM for the second. The first is the more potent here.

Going from “Ac-SKRRLALCY-NH2 [SEQ ID NO: 57, Ac-SKRRLALCY--NH2]” to “Ac-SRARLALCY-NH2 [SEQ ID NO: 61, Ac-SRARLALCY--NH2]”, the IC50 rises from 8 µM to 47 µM (5.9-fold). The first is the more potent here.

“Ac-SRKKLALCY-NH2 [SEQ ID NO: 63, Ac-SRKKLALCY--NH2]” and “Ac-SRKRLALCY-NH2 [SEQ ID NO: 65, Ac-SRKRLALCY--NH2]” are within 1.5-fold of each other in IC50: 17 µM for the first, 18 µM for the second.

“Ac-SRRKLALCY-NH2 [SEQ ID NO: 68, Ac-SRRKLALCY--NH2]” and “FKKKLALCY-NH2 [SEQ ID NO: 8, FKKKLALCY--NH2]” are within 1.5-fold of each other in IC50: 27 µM for the first, 20 µM for the second.

First: HKKKLALCY-NH2 [SEQ ID NO: 10, HKKKLALCY--NH2]
Second: LKKKHALCY-NH2 [SEQ ID NO: 11, LKKKHALCY--NH2]
The IC50 of the first is 3.2-fold lower: 55 µM for the first, 178 µM for the second. The first is the more potent here.

First: LKKKLALCY-NH2 [SEQ ID NO: 13, LKKKLALCY--NH2]
Second: NKKKLALCY-NH2 [SEQ ID NO: 15, NKKKLALCY--NH2]
The IC50 of the first is 3.4-fold higher: 65 µM for the first, 19 µM for the second. The second is the more potent here.

First: PKKKLALCY-NH2 [SEQ ID NO: 16, PKKKLALCY--NH2]
Second: QKKKLALCY-NH2 [SEQ ID NO: 17, QKKKLALCY--NH2]
The IC50 of the first is 9.8-fold lower: 103 µM for the first, 1010 µM for the second.

First: SHKKLALCY-NH2 [SEQ ID NO: 18, SHKKLALCY--NH2]
Second: SKFKLALCY-NH2 [SEQ ID NO: 20, SKFKLALCY--NH2]
The IC50 of the first is 9.8-fold higher: 362 µM for the first, 37 µM for the second.

First: SKHKLALCY-NH2 [SEQ ID NO: 21, SKHKLALCY--NH2]
Second: SKKFLALCY-NH2 [SEQ ID NO: 22, SKKFLALCY--NH2]
The IC50 of the first is 1.6-fold higher: 888 µM for the first, 554 µM for the second. The second is the more potent here.

Compared with “SKKKAALCY-NH2 [SEQ ID NO: 24, SKKKAALCY--NH2]”, “SKKKHALCY-NH2 [SEQ ID NO: 25, SKKKHALCY--NH2]” is 2.8-fold higher in IC50: 232 µM for the first, 656 µM for the second.

“SKKKIALCY-NH2 [SEQ ID NO: 26, SKKKIALCY--NH2]” and “SKKKLAFCY-NH2 [SEQ ID NO: 27, SKKKLAFCY--NH2]” are within 1.5-fold of each other in IC50: 62 µM for the first, 86 µM for the second.

“SKKKLAICY-NH2 [SEQ ID NO: 28, SKKKLAICY--NH2]” gave an IC50 of 107 µM.
